Test results taken from EP0219838A2, “Carbocyclic purine nucleosides, their production and use” (Takeda Chemical Industries, Ltd., priority 1985, dated 1987).
Values after ≈ are worked out from the molar mass of the structure shown. Read-outs that look alike come from different tables or passages of the source.

How the values were obtained:
Format in all cases: cell-based
[1] = test system: Herpes Simplex Virus Type 1, HF Strain; assay: Inhibitory effect against herpes simplex virus (reduction of viral cytopathogenic effect) in Vero cells
Excerpt: (§1) Vero cells were infected with 100 TCID₅₀ (50% tissue-culture infected doses) of viruses and cultured with various concentrations of the compounds.

[2] = Cytotoxicity in non-infected control culture (Vero cells); details: monkey
Excerpt: as §1

[3] = Cytotoxicity in non-infected control culture (FL cells); details: human, non-infected FL cell control culture, eight days
Adenovirus, Type 3 = assay: Antiadenovirus activity (reduction of viral cytopathogenic effect) in FL cells; details: Human mastadenovirus B, 192 h; 50% inhibitory dose; FL cells infected with 100 TCID50; observed eight days after the infection; read-out: ID50 (the source's name)
Excerpt: FL cells were infected with 100 TCID₅₀ (50% tissueculture infected doses) of viruses and cultured with various concentrations of the compouns.

[4] = Human alphaherpesvirus 1, Vero, 72 h, read-out: ID50
[5] = Human alphaherpesvirus 1, 72 h, concentration required to reduce the viral cytopathogenic effect by 50%, Vero cells infected with 100 TCID50, observed three days after the infection, read-out: ID50 (the source's name)

| SMILES | IC50 [1, 4] [µg/mL] | MCC at 72 h ([2]; minimum concentration to cause a visible disruption of normal cell morphology, non-infected Vero cells, three days, read-out: Cytotoxicity) [µg/mL] | IC50 [1, 5] [µg/mL] | MCC at 72 h ([2]; vero cells) [µg/mL] | MCC at 192 h [3] [µg/mL] | IC50 (Adenovirus, Type 3) [µg/mL] |
| --- | --- | --- | --- | --- | --- | --- |
| Nc1ccn([C@@H]2O[C@H](CO)[C@@H](O)[C@@H]2O)c(=O)n1 [Ara-C] | 0.39 (≈ 1.6 µM) | 0.78 |  |  |  |  |
| Nc1nc2c(ncn2[C@@H]2C[C@H](CO)[C@H](O)C2)c(=O)[nH]1 [9-[(1R, 3R, 4R)-4-hydroxymethyl-3-hydroxycyclopentan-1-yl]guanine] |  |  | 0.049 (≈ 0.185 µM) | 12.5 | 3.13 | 0.39 (≈ 1.47 µM) |
| O=c1[nH]c(=O)n([C@H]2C[C@H](O)[C@@H](CO)O2)cc1I [IUDR] |  |  | 50 (≈ 141 µM) | 200 |  |  |
| Nc1nc2c(ncn2COCCO)c(=O)[nH]1 [Acyclovir] |  |  | 3.13 (≈ 13.9 µM) | 800 | 400 | 200 (≈ 888 µM) |
| O=c1[nH]c(=O)n([C@H]2C[C@H](O)[C@@H](CO)O2)cc1Br [BUDR] |  |  | 25 (≈ 81.4 µM) | 100 |  |  |
| Nc1ncnc2c1ncn2[C@@H]1O[C@H](CO)[C@@H](O)[C@@H]1O [Ara-A] | 12.5 (≈ 46.8 µM) |  |  | 100 |  |  |
